The record followed here is patent US20110251104A1, “COMPOSITIONS AND METHODS FOR DETECTING DEACETYLASE ACTIVITY” (priority 2010, published 2011).

Molecules are shown by their SMILES.

The assay has as its target T1, Sirt1 (Homo sapiens, UniProt Q96EB6).
T1 construct: purchased
T1 sequence (Q96EB6 1-747): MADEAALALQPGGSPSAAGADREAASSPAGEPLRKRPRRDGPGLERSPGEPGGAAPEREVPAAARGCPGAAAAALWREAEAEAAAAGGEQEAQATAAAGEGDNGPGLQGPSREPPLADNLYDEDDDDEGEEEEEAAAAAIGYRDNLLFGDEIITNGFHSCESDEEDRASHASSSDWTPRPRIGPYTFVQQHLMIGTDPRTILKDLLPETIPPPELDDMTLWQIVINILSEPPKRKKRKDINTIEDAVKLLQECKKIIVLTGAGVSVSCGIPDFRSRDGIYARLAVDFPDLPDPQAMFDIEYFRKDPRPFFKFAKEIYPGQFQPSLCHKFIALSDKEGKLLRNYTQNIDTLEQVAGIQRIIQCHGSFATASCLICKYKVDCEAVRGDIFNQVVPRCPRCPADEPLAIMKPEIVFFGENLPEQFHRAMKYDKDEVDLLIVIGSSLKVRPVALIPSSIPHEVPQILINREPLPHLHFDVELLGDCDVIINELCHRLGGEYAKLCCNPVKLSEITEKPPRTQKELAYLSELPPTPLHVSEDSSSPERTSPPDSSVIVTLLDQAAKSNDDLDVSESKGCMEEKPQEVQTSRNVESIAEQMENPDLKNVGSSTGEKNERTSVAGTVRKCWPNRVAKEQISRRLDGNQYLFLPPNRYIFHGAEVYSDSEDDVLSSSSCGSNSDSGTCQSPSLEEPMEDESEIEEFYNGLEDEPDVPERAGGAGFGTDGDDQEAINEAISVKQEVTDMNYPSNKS
The assay is described as follows: Km determination for SIRT1 substrates by RapidFire mass spectrometric quantification of acetyl-ADPr. The following applies: room temperature, 50 mM Tris pH 7.5, 1/1500 dilution of enzyme, acetyl-ADPr detection. In kind it is biochemical. An excerpt:
A high-throughput in vitro assay using the current invention was developed against a commercially available SIRT1 enzyme preparation. The assay was then used to fully characterize the enzyme preparation through a series of kinetic and end-point assays. Commercially available ADP-ribose was used to develop mass spectrometric methods and separation techniques for sensitive and selective detection in the assay. A quantitative analysis method for acetyl-ADPr, a compound that has a chemical structure and properties similar to ADP-ribose, was developed based on the method developed for ADP-ribose.
Next, ADP-ribose was dissolved at a concentration of 1.0 micromolar in an assay buffer consisting of 50 mM Tris pH 7.5 containing 137 mM NaCl, 2.7 mM KCl, 1 mM MgCl2, 0.1% BSA, 1 mM NAD^+. Separation conditions to purify ADP-ribose from the assay buffer for mass spectrometric analysis were developed on a RapidFire® 200 High-Throughput Mass Spetrometry system. The optimized conditions for sample desalting were determined to be a sample wash with water for 3 seconds at a flow rate of 1.5 mL/min and sample elution with a 2:1:1 solution of water:acetonitrile:acetone containing 5 mM ammonium acetate for 3.5 seconds at a flow rate of 1.25 mL/min. […]

Broadly, the Km is the substrate concentration at which the rate is half of its maximum. Regarding `NC(=O)c1ccc[n+]([C@@H]2O[C@H](COP(=O)([O-])OP(=O)(O)OC[C@H]3O[C@@H](n4cnc5c(N)ncnc54)[C@H](O)[C@@H]3O)[C@@H](O)[C@H]2O)c1` [NAD+, nicotimamide adenine dinucleotide], the Km amounted to 54 ± 1 µM.
